Laboratory results: patent US20050238706A1, “Pharmaceutically active lipid based formulation of SN-38” (NeoPharm, Inc., priority 2002, published 2005)

Columns and labels:
[1] = cited from earlier work
[2] = tested on: topoisomerase I purified from human and rodent tumor cell lines; conditions: enzyme purified from human and rodent tumor cell lines; cited from earlier work
[3] = tested on: P388 murine leukemia tumor cells; experiment: Therapeutic efficacy in P388 tumor bearing CD2F1 mice; assay type: in vivo, mouse; conditions: for 60-day % Survival: n = 10
Source text: (§1) Either female CD2F1 (6-8 weeks old) mice or female C.B-17 SCID mice (4-6 weeks old) were obtained from the vendor and maintained as described previously. The CD2F1 mice were transplanted with P388 murine leukemia tumor cells, whereas the SCID mice were transplanted with HT-29 human colon cancer cells, Capan-1 human pancreatic cancer cells and MX-1 human breast cancer cells. After a suitable waiting period (waiting period varied based on the tumor models), each mouse received intravenous injection via tail vein of placebo liposomes, LE-SN38 or CPT-11 at pre-determined dose levels.

[4] = tested on: HT-29 human colon cancer cells; experiment: Therapeutic efficacy in HT-29 xenograft, SCID mice; assay type: in vivo; conditions: 8 mg/kg × 5, iv, day 28 post treatment, n = 5
Source text: as §1

[5] = tested on: Capan-1 human pancreatic cancer cells; experiment: Therapeutic efficacy in Capan-1 xenograft, SCID mice; assay type: in vivo; conditions: day 28 post treatment, n = 5
Source text: as §1

## CCc1c2c(nc3ccc(O)cc13)-c1cc3c(c(=O)n1C2)COC(=O)[C@]3(O)CC [SN38, (+)-(4S)-4,11-diethyl-4,9-dihydroxy-1H-pyrano[3′,4′:6,7]-indolizino[1,2-b]quinoline-3,14(4H,12H)-dione]
[1]
  solubility in aqueous solutions: exceedingly insoluble
[2]
  potency as an inhibitor of topoisomerase I relative to irinotecan: approximately 1000 times

## CCc1c2c(nc3ccc(OC(=O)N4CCC(N5CCCCC5)CC4)cc13)-c1cc3c(c(=O)n1C2)COC(=O)[C@]3(O)CC [CPT-11, irinotecan]
[3]; 4 mg/kg for 5 consecutive days
  median survival time: 16 days
[3]; 4 mg/kg × 5, iv
  60-day % Survival: 0%
[3]; 8 mg/kg for 5 consecutive days
  median survival time: 20 days
[3]; 8 mg/kg × 5, iv
  60-day % Survival: 0%
[3]; 16 mg/kg for 5 consecutive days
  median survival time: 22 days
[4]
  % Growth Inhibition: 36%
[5]; 8 mg/kg × 5, iv
  % Growth Inhibition: 47.8%
[5]; 16 mg/kg × 5, iv
  % Growth Inhibition: 68.7%
